Results taken from PMC8137933, “Using molecular dynamics simulations to prioritize and understand AI-generated cell penetrating peptides” (Scientific Reports, 2021).

System: HeLa cells
Format: cell-based
Protocol: We first evaluated cell toxicity of Pep-MD. Specifically, we quantified HeLa cell viability using CellTiter-Glo® Luminescent Cell Viability Assay kit in the presence of a series of concentration of Pep-MD, 0.1, 0.5 and 2 µM, in serum-free cell culture media. The kit can visualize the number of viable cells as chemiluminescence intensity based on quantitation of the ATP present, an indicator of metabolically active cells. As a positive control, we also evaluated TAT (GRKKRRQRRR in amino acid sequence).
The HeLa cell line was purchased from RIKEN cell bank (Tsukuba, Japan). HeLa cells were cultured in Dulbecco’s Eagle’s medium (DMEM, FUJIFILM Wako Pure Chemical, Japan) supplemented with inactivated 10% fetal bovine serum (FBS, Biosera, France) and 1% penicillin–streptomycin solution (FUJIFILM Wako Pure Chemical).
HeLa cells were seeded at a density of 8000 cells per well in 96 well plate (AGC Techno Glass, Shizuoka, Japan). […] Cell viability of each well was quantified with CellTiter-Glo® Luminescent Cell Viability Assay kit (Promega, Madison, WI, USA) and EnSpire™ microplate reader (PerkinElmer, Waltham, MA, USA) according to manufacturer’s instructions. The cell viability was calculated as the chemiluminescence intensity ratio of samples to that of […] without peptide.

| Sequence | Cell toxicity (HeLa cell viability) at 2.0 µM |
| --- | --- |
| GRKKRRQRRR [TAT] | significant cell toxicity |
| YRGWHCRGITKNGIIFDIKW [Pep-MD] | little toxicity |
